Assay results as given in US20240132449A1, “HETEROCYCLIC COMPOUNDS AND METHODS OF USE THEREOF” (1cBio, Inc., priority 2022, published 2024).

Tests used:
PARP1 [1] = molecular target: T1, PARP1 (Homo sapiens, UniProt P09874); test: PARP1 fluorescence polarization binding assay; conditions: binding IC50, GST-tagged PARP1 20 nM, PARPi-FL 3 nM
Method: Compounds of the present disclosure were tested in a PARP1 fluorescence polarization binding assay at Pharmaron (Beijing, P.R.China). In this biochemical assay, binding of test compound to recombinant human PARP1 reduces the amount of binding of a fluorescent probe, and consequently reduces the detected level of fluorescence polarization. Test compound stock solutions were prepared in DMSO and then serially diluted into 10 concentrations by 3-fold dilution in a 384-well plate using a TECAN EVO200. 60 nL of each dilution was transferred to the plate using an Echo550 (Labcyte), and then 10 μL 40 nM GST-tagged PARP1 (BPS Bioscience, Cat #80501), diluted in assay buffer (50 mM Tris pH 8.0, 0.001% Triton X-100, 10 mM MgCl2, 150 mM NaCl), was added to the plate. After a centrifugation at 1000 rpm for 1 min, the assay plate was incubated for 30 min at RT. 10 μL 6 nM PARPi-FL (TOCRIS, Cat #6461), diluted using assay buffer, was then added to the plate. The final concentrations of PARP1 and PARPi-FL were 20 nM and 3 nM, respectively, in a total volume of 20 μL. After a centrifugation at 1000 rpm for 1 min, the assay plate was incubated for 4 h at RT. Samples in each well were read using an Envision instrument (Perkin-Elmer; Ex=480 nm Em=FITC FP-P pol 535 nm & FITC FP-S pol 535 nm). Percent inhibition was calculated from mP values using Inhibition (%)=[1−(mPc−mPL)/(mPH−mPL)]×100%, where mPc, mPL, and mPH are the mP values of test compound, Low controls, and High controls, respectively. Binding IC50 values were calculated using XLFit (equation 201: y=A+((B−A)/(1+((x/C)^D))), where A=bottom, B=top, C=IC50, and D=slope) with a floating top and bottom for curves. Binding IC50 values are shown in Table A and are presented in ranges, in which “+++”<100 nM, 100 nM≤“++”<3000 nM, and “+”≥3000 nM.

PARP1 [2] = molecular target: T1, PARP1; test: PARP1 biochemical trapping assay (BPS PARPtrap)
Method: Compounds of the present disclosure were tested in a PARP1 biochemical trapping assay at BPS Bioscience (San Diego, CA). PARP1 is known to bind damaged DNA through its DNA-binding domains. Binding to DNA activates PARP1, and in the presence of NAD+, PARP1 ribosylates itself (auto-ribosylation), leading to PARP1 dissociation from the DNA due to the accumulated negative charge of the ribosyl polymer. In the presence of some inhibitors, however, PARP remains bound to the DNA, a phenomenon termed trapping.
The BPS PARPtrap assay kit for PARP1 (BPS Catalog #80584) was used. A series of dilutions of the compounds were prepared with 10% DMSO in water. The final concentration of DMSO was 1% in all reactions. The enzymatic reactions were conducted in duplicates at room temperature in a 96-well plate. The 45 μl reaction mixtures in PARPtrap buffer 1 containing PARP1 fluorescent labelled oligonucleotide duplex, PARP enzyme and the test compound were incubated at room temperature for 10 min. After pre-incubation, the enzymatic reaction was initiated by adding 5 μl of 10×NAD+ solution. The reaction was incubated for 45-60 min at room temperature.
Fluorescence polarization was measured at an excitation of 470 nm and an emission of 518 nm using a Tecan Infinite M1000 microplate reader. The blank value was subtracted from all other values. Fluorescence polarization was analyzed by Tecan Magellan 6 software and wells containing DNA were used as references. The fluorescence polarization data were then evaluated using GraphPad Prism software. The fluorescence polarization in absence of the compound in each data set was defined as 0% activity (FPo), while the fluorescence polarization in the absence of both NAD+ and the compound was defined as 100% activity (FPt). The percent activity in the presence of the compound was calculated according to the equation % activity=[FP−FPo]/[(FPt−FPo)]×100, where FP=the fluorescence polarization in the presence of the compound.
The values of % activity versus a series of compound concentrations were then plotted using non-linear regression analysis of a sigmoidal dose-response curve generated with the equation Y=B+(T−B)/1+10^((LogEC50−X)×Hill Slope), where Y=percent activity, B=minimum percent activity, T=maximum percent activity, X=logarithm of compound and Hill Slope=slope factor or Hill coefficient. The EC50 value was determined by the concentration causing a half-maximal percent activity. EC50 values are shown in Table C and are presented in ranges, in which “+++”<300 nM, 300 nM≤“++”<3000 nM, and “+”≥3000 nM.

[3] = test system: DLD-1 wild-type colorectal adenocarcinoma cells; test: Cell viability assay (Cell Titer-Glo), DLD-1 wild-type; assay type: cell-based; conditions: Homo sapiens, DLD-1, 168 h, 7 days incubation; for inhibition at 10 µM: read-out: DLD-1 wild-type % inh at 10 μM
Method: (§1) Compounds of the present disclosure were tested for their effects on the viability of cancer cells. DLD-1 wild-type and DLD-1 BRCA2(−/−) colorectal adenocarcinoma cells, an isogenic pair of cell lines differing in the presence and absence, respectively, of both BRCA2 alleles, were used. The cells were harvested during the logarithmic growth period, counted, and seeded at 50 cells/well for DLD-1 wild-type and 200 cells/well for DLD-1 BRCA2(−/−) in a 384-well cell culture plate. After seeding, cells were incubated at 37° C., 5% CO2 overnight. Cells were treated with serially diluted test compounds at 10 concentrations (e.g., from 1.5 nM-30 μM) for generation of dose response curves, or at a single concentration. The plate was further incubated for another 7 days in a humidified incubator at 37° C. and 5% CO2. Cell viability was assessed by luminescence measurement after addition of Cell Titer-Glo reagent (Promega, Madison, Wis.) according to the manufacturer's instructions. Cell viability IC50 values were calculated using XLFit, equation 201: y=A+((B−A)/(1+((x/C)^D))), where A=bottom, B=top, C=IC50, and D=slope. IC50 values are shown in Table B and are presented in ranges, in which “+++”<300 nM, 300 nM≤“++”<3000 nM, and “+”≥3000 nM. Values for percent inhibition at 10 μM are also shown in Table B and are presented in ranges, in which “***”≥67%, 33%≤“**”<67%, and “*”<33%. Effects of the test compounds on the viability of other cell lines such as MDA-MB-436, MDA-MB-231, SUM149PT, HCC1395, and UWB1.289 are determined in an analogous method.

[4] = test system: DLD-1 BRCA2(−/−) colorectal adenocarcinoma cells; test: Cell viability assay (Cell Titer-Glo), DLD-1 BRCA2(−/−); assay type: cell-based; conditions: Homo sapiens, DLD-1, 168 h; 7 days incubation, 200 cells/well
Method: as §1

recombinant human PARP2 = recombinant human PARP2 (Homo sapiens, UniProt Q9UGN5); test: PARP2 fluorescence polarization binding assay; conditions: for IC50: binding IC50, GST-tagged PARP2 20 nM, PARPi-FL 3 nM; for inhibition at 10 µM: read-out: PARP2 % inh at 10 μM
Sequence of recombinant human PARP2 (Q9UGN5 whole entry): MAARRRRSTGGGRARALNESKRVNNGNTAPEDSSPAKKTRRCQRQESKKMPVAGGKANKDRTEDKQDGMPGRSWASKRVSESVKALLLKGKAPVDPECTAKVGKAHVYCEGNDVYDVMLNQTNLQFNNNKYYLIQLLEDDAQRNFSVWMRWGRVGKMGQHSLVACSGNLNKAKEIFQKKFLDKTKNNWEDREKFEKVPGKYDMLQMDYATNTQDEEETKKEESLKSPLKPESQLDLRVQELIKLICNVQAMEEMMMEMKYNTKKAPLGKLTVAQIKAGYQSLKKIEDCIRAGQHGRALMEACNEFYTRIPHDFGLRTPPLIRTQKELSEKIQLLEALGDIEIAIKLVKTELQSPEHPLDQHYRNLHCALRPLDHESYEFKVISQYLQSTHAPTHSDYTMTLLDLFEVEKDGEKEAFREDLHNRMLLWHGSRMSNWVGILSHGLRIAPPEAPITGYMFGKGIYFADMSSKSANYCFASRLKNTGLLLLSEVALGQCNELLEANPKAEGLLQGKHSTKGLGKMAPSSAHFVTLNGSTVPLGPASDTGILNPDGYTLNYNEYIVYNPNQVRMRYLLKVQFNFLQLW
Method: Compounds of the present disclosure were tested in a PARP2 fluorescence polarization binding assay at Pharmaron (Beijing, P.R. China). In this biochemical assay, binding of test compound to recombinant human PARP2 reduces the amount of binding of a fluorescent probe, and consequently reduces the detected level of fluorescence polarization. Test compound stock solutions were prepared in DMSO and then serially diluted into 10 concentrations by 3-fold dilution in a 384-well plate using a TECAN EVO200. Alternatively, a single concentration was prepared. 60 nL of each dilution was transferred to the plate using an Echo550 (Labcyte), and then 10 μL 40 nM GST-tagged PARP2 (BPS Bioscience, Cat #80502), diluted in assay buffer (50 mM Tris pH 8.0, 0.001% Triton X-100, 10 mM MgCl2, 150 mM NaCl), was added to the plate. After a centrifugation at 1000 rpm for 1 min, the assay plate was incubated for 30 min at RT. 10 μL 6 nM PARPi-FL (TOCRIS, Cat #6461), diluted using assay buffer, was then added to the plate. […] After a centrifugation at 1000 rpm for 1 min, the assay plate was incubated for 4 h at RT. Samples in each well were read using an Envision instrument (Perkin-Elmer; Ex=480 nm Em=FITC FP-P pol 535 nm & FITC FP-S pol 535 nm). […] Binding IC50 values were calculated using XLFit (equation 201: […])^D))), where A=bottom, B=top, C=IC50, and D=slope) with a floating top and bottom for curves.

T1 sequence (P09874 whole entry): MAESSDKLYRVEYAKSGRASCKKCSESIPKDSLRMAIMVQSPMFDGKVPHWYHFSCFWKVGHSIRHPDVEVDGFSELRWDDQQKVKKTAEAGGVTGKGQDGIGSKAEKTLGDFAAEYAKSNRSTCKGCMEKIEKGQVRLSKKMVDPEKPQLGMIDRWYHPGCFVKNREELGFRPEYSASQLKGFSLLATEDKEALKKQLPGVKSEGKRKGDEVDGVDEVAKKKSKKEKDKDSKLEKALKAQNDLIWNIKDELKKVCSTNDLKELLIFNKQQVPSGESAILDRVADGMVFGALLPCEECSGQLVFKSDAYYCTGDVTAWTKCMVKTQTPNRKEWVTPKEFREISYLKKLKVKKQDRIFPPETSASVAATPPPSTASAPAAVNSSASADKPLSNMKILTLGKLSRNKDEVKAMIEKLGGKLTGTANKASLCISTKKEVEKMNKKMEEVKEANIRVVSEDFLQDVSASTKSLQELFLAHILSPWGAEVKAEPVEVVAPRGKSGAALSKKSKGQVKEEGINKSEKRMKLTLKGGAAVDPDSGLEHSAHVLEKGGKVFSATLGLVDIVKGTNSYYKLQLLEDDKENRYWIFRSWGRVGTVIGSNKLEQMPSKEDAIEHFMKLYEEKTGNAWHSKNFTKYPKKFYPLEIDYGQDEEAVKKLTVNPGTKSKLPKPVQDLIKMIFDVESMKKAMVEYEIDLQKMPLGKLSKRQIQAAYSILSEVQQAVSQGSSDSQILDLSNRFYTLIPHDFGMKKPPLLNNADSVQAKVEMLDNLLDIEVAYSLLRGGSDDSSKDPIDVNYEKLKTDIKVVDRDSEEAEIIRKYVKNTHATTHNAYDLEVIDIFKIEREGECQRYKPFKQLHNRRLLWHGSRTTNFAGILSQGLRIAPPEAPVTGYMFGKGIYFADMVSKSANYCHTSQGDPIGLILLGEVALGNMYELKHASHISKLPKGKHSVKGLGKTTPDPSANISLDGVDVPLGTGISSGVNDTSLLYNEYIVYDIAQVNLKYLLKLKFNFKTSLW

SMILES | IC50 (PARP1 [1]) [µM] | EC50 (PARP1 [2]) [µM] | IC50 ([3]; 50 cells/well) [µM] | IC50 [4] [µM] | IC50 (recombinant human PARP2) [µM] | inhibition at 10 µM (recombinant human PARP2) [%] | inhibition at 10 µM [3] [%]
CCn1c(=O)[nH]c2cc(CN3CCN(c4ccc(C(=O)NC)nc4C)C(=O)C3)sc2c1=O [Compound 334, 5-[4-({3-ethyl-2,4-dioxo-1H-thieno[3,2-d]pyrimidin-6-yl}methyl)-2-oxopiperazin-1-yl]-N,6-dimethylpyridine-2-carboxamide] | 0.1 to 3 | > 3 |  |  |  |  | 
CCn1c(=O)[nH]c2cc(CN3CCN4c5ccc(C(=O)NC)nc5OC[C@H]4C3)sc2c1=O [Compound 524, (R)-3-((3-ethyl-2,4-dioxo-1,2,3,4-tetrahydrothieno[3,2-d]pyrimidin-6-yl)methyl)-N-methyl-1,2,3,4,4a,5-hexahydropyrazino[1,2-d]pyrido[2,3-b][1,4]oxazine-8-carboxamide] | < 0.1 |  |  | > 3 | > 3 | 33 to 67 | < 33
CCn1c(=O)[nH]c2cc(CN3CCN(c4ccc(C(=O)NC(CO)CO)nc4C)CC3)sc2c1=O [Compound 527] | < 0.1 | > 3 |  | > 3 |  | 33 to 67 | < 33

The next lines start with results.

IC50 (PARP1 [1]) [µM] | EC50 (PARP1 [2]) [µM] | IC50 ([3]; 50 cells/well) [µM] | IC50 [4] [µM] | IC50 (recombinant human PARP2) [µM] | inhibition at 10 µM (recombinant human PARP2) [%] | SMILES | inhibition at 10 µM [3] [%]
< 0.1 | 0.3 to 3 | > 3 | 0.3 to 3 | > 3 | 33 to 67 | CCn1c(=O)[nH]c2cc(CN3CCN(c4ccc(C(=O)NC)nc4C(F)(F)F)CC3)sc2c1=O [Compound 307] | < 33
< 0.1 | < 0.3 |  | < 0.3 |  | 33 to 67 | CCn1c(=O)[nH]c2cc(CN3CCN(c4ccc(C(=O)NC)nc4F)CC3)sc2c1=O [Compound 319] | < 33
< 0.1 | > 3 |  | > 3 |  | 33 to 67 | CCn1c(=O)[nH]c2cc(CN3CCN(c4ccc(C(=O)NC5COC5)nc4C)CC3)sc2c1=O [Compound 323] | < 33
